Laboratory results taken from patent publication US9980910B2, “Enteric-coated sodium metabisulfite livestock feed additive for vomitoxin detoxification” (priority 2010, dated 2018).

Key:
[1] = system: 25-50 lb pigs fed vomitoxin-contaminated corn; conditions: P<0.01
pigs [2] = conditions: cited from earlier work
pigs [3] = conditions: feeding to pigs; cited from earlier work
66-278 lbs pigs = test: Growth performance of 66-278 lbs pigs fed sodium metabisulfite in clean diets (F6_G07_01); type: in vivo; conditions: level increased from 0 to 0.5 to 1.0% in non-vomitoxin contaminated diets
From the text: The data presented in Table 2 confirms that toxic effects begin to occur between 0 and 0.5% sodium metabisulfite in the diet.

[4] = Destruction of vomitoxin by sodium metabisulfite in vitro at two pH levels
Description: Sodium metabisulfite was tested for its ability to destroy vomitoxin in vitro at different pH levels. […] For example, when tested at 10 lb/ton, sodium metabisulfite destroyed 70% of the measurable vomitoxin at pH 6.5, but none at pH 3.0. At 20 lbs/ton sodium metabisulfite destroyed over 97% of the vomitoxin at pH 6.5 but only 41% at pH 3.0. Destruction levels less than 10% are considered to be random variation in this assay and not related to treatment. […] Although the levels of sodium metabisulfite required to destroy vomitoxin in this in vitro assay are higher than the “safe” level of 0.35% determined in a previous referenced feeding trial in pigs, other studies (Tables 1 and 3) clearly show positive effects of sodium metabisulfite at levels of 0.125 to 0.25% in vomitoxin-contaminated diets.

[5] = diet containing approximately 5 ppm vomitoxin, 25-55 lb pigs
[6] = vomitoxin-contaminated diet, 5 to 20 lbs/ton of diet (0.25 to 1.0%)

## CC1=C[C@H]2O[C@@H]3[C@H](O)C[C@](C)([C@@]2(CO)[C@H](O)C1=O)[C@]31CO1 [Vomitoxin, deoxynivalenol]
[1]; [5]
  Reduction of daily feed intake: 20%
  Reduction of growth rate: 15%
Pigs [2]
  Vomitoxin level resulting in complete feed refusal, vomiting, immune suppression, and gastrointestinal lesions: above 5 ppm

## O=S([O-])S(=O)(=O)[O-].[Na+].[Na+] [sodium metabisulfite, Sodium metabisulfite]
Pigs [3]
  "no-effect" level (no toxic effects): 0.35 % of the diet
66-278 lbs pigs
  Average daily feed intake (effect in words): linearly reduced
[4]; pH 3.0, metabisulfite 2.5 lbs/ton
  % destruction of vomitoxin: 4.2%
[4]; pH 3.0, metabisulfite 5 lbs/ton
  % destruction of vomitoxin: 0.9%
[4]; pH 3.0, metabisulfite 20 lbs/ton
  % destruction of vomitoxin: 41%
[4]; pH 6.5, metabisulfite 2.5 lbs/ton
  % destruction of vomitoxin: 0.0%
[4]; pH 6.5, metabisulfite 5 lbs/ton
  % destruction of vomitoxin: 0.0%
[4]; pH 6.5, metabisulfite 10 lbs/ton
  % destruction of vomitoxin: 70%
[1]; [6]
  Average daily feed intake (ADFI) (effect in words): improves
  Average daily gain (ADG) (effect in words): improves
